Measured values as given in patent US20080125498A1, “TREATMENT OF NEURODEGENERATIVE DISEASES AND CONDITIONS USING PAR1 ANTAGONISTS” (priority 2001, published 2008).
Square brackets hold non-standard residues; d marks the D form. Ends that are not written are not given here. * marks the point of attachment. Phe(4-guanidino) = N=C(N)Nc1ccc(C[C@H](N)C(=O)O)cc1; Phe(4-F) = N[C@@H](Cc1ccc(F)cc1)C(=O)O; trans‑cinnamoyl = O=C(/C=C/c1ccccc1)*

Columns and labels:
[1] = test system: NMDA receptor; assay: Whole cell patch recording of NMDA-evoked currents in hippocampal slice CA1 pyramidal neurons; assay type: cell-based, rat
[2] = test system: NMDA receptor; assay: Whole cell patch recording of NMDA-evoked currents in hippocampal CA1 pyramidal cells of wild-type and PAR1-/- mice; assay type: cell-based, mouse; details: 100 micromolar APV, wild-type and PAR1-/- mice
[3] = test system: PAR1; assay: Free intracellular calcium in cultured astrocytes (Fluo-3 AM); assay type: cell-based, mouse
[4] = test system: PAR1; assay type: cell-based, rat
[5] = test system: PAR1; assay: PI hydrolysis in hippocampal slices; assay type: cell-based, mouse
Text: PAR1 is a seven transmembrane G-protein coupled receptor that stimulates G-alpha-q to initiate phosphatidyl inositol (PI) hydrolysis. To ensure that PAR1 is functional in regions of the brain that are subject to ischemic damage in the mouse transient focal ischemia model, we tested the ability of several activators of PAR1 to initiate PI hydrolysis (Chung et al., 1997) in the hippocampus and striatum.
Since tPA activates plasminogen to form plasmin, we tested whether exogenously applied tPA could activate endogenous plasminogen in brain slices to form plasmin and activate PAR1.

[6] = test system: NMDA receptor; assay: Two electrode voltage clamp of recombinant NMDA receptors with or without PAR1 in Xenopus oocytes; assay type: cell-based, Xenopus laevis
Method: Expression and recording of NMDA and PAR1 receptor function in Xenopus laevis oocvtes. cRNA was synthesized from linearized template cDNA according to manufacturer specifications (Ambion, Austin, Tex.). Xenopus oocytes were removed from ovaries of female frogs anesthetized with 0.3% 3-aminobenzoic acid ethylester. Groups of 20-30 stage V-VI oocytes were incubated in 292 U/ml Worthington (Freehold, N.J.) Type IV collagenase for 2 hours with slow shaking. The oocytes were rinsed in Barth's solution, and stored at 17° C. in Barth's solution supplemented with 100 microgram/ml gentamycin and 40 microgram/ml streptomycin. Control oocytes were injected with 3 ng NR1 subunit and 7 ng NR2B subunit. Other oocytes were injected with the NMDA receptor subunits plus 3 ng PAR1 cRNA. Two electrode voltage clamp recordings were made 3-7 days post-injection. Oocytes were continually perfused with recording solution (in mM, 90 NaCl, 1 KCl, 10 HEPES, pH 7.4) and held under voltage clamp at −30 to −50 mV with an OC-725B amplifier (Warner Instruments, Hamden, Conn.). Recording solution was supplemented with 1.0 mM CaCl2 during initial impalement of the oocytes and subsequently 0.5 mM BaCl2 during recording to reduce the calcium-activated chloride current endogenous to oocytes. […] NMDA receptor currents were evoked by 20 micromolar glutamate/10 micromolar glycine perfused for 0.5-1 minute. […] Expression of PAR1 protein was verified by a thrombin or SFLLRN-stimulated rapidly desensitizing inward current at −30 mV that reflects the Ca^2+-activated Cl^− current endogenous to the oocyte. To test the ability of thrombin to modify NMDA receptor function in oocytes, recordings of receptor function were made both before and after a 15-60 min incubation in recording solution supplemented with thrombin in Eppendorf tubes at room temperature. […] Oocytes with responses less than 50 nA were not included in the analysis.

[7] = test system: NR1 subunit; assay: NMDA receptor subunit immunoblots of thrombin-treated brain membranes; assay type: biochemical, rat
Method: NMDA receptor subunit immunoblots. Human embryonic kidney (HEK) cells were maintained in DMEM supplemented with 0.5 mM glutamine, 1 mM pyruvate, penicillin, streptomycin, and 10% fetal bovine serum in a humidified environment with 5% CO2, and transfected with 1 microgram/ml of NR1 or 1:2 microgram/ml NR1:NR2 cDNA. Cells were washed in ice-cold HEPES buffered saline (HBS), scraped on ice, and membranes isolated by centrifugation at 12,000×g. […] Adult rat brain regions were dissected, frozen in liquid nitrogen, homogenized in ice-cold HEPES buffered saline (HBS), centrifuged, and stored at −20° C. Membranes were resuspended in HBS and treated with thrombin or buffer for 30 min at 37° C. Samples were centrifuged, and the membrane pellet resuspended in 2% sodium dodecylsulphate (SDS), 62.5 mM Tris, 10% glycerol, 5% beta-mercaptoethanol, 0.05% bromophenol blue (pH 6.8); some samples were treated with IOU DNase for 10 min at 37° C. SDS/polyacrylamide gel electrophoresis (SDS/PAGE) and protein blotting to Immobilon-P membranes was performed as described (Lau and Huganir, Differential tyrosine phosphorylation of N-methyl-D-aspartate receptor subunits. J Biol Chem 270: 20036-20041, 1995). Membranes were blocked for 30 min in 0.2 M Tris base, 1.37 M NaCl, pH 7.4, containing 5% nonfat dry milk, and incubated overnight at 4° C. in primary antibodies: NR1 mAb54.1 (gift from Dr. S. Heinemann, Salk Institute, La Jolla Calif.), NR1 alt-C-terminal (Upstate Biotechnology, Lake Placid, N.Y.), NR2A C-terminal (Chemicon, Temecula, Calif.), or NR2B C-terminal (Upstate Biotechnology). Membranes were washed 3×, and incubated with HRP-conjugated goat anti-mouse or goat anti-rabbit antibodies (1:10,000), washed 3×, and developed using enhanced chemiluminescence. The percent of receptor cleaved by thrombin was determined using densitometry.

[8] = test system: cortical astrocytes; assay: Astrocyte proliferation by BrdU incorporation; assay type: cell-based, mouse; details: for number of BrdU-positive cells: astrocyte cultures from wild type mice, 3 or 30 micromolar, 24 hours
Method: Cortical astrocytes from wild type and PAR1−/− knockout mice were either untreated (control) or treated for 24 hours with a 3 or 30 micromolar concentration of the peptide TFLLR-NH2 (SEQ ID NO: 1), which selectively activates PAR1. Cells were pulse-labeled with BrdU for the final 2 hours of culture.

[9] = cultured astrocytes from PAR1-/- knockout mice
[10] = cultured astrocytes from wild type mice

N[C@H](CCCP(=O)(O)O)C(=O)O [APV, D-2-amino-5-phosphonovaleric acid, reference compound]
block of responses to NMDA/glycine ([1]; 100 micromolar APV): blocked the response | block of NMDA receptor response following thrombin treatment [2]: abolished

Nc1ncnc2c1ncn2[C@@H]1O[C@H](COP(=O)(O)OP(=O)(O)OP(=O)(O)O)[C@@H](O)[C@H]1O [ATP]
free intracellular calcium [3, 9]: increases free intracellular calcium | free intracellular calcium [3, 10]: increases free intracellular calcium

NC(N)=NCCC[C@H](NC(=O)[C@@H]1CCCN1C(=O)[C@H](N)Cc1ccccc1)C(=O)CCl [PPACK, D-Phe-Pro-Arg-chloromethylketone]
response magnitude to thrombin (F/Fo) with PPACK [4]: 1.1±0.04 fold

N-trans-cinnamoyl-p-fluoroPhe-p-guanidinoPhe-Leu-Arg-Arg-NH2 ({trans‑cinnamoyl}-[Phe(4-F)][Phe(4-guanidino)]LRR-NH2; SMILES CC(C)C[C@H](NC(=O)[C@H](Cc1ccc(NC(=N)N)cc1)NC(=O)[C@H](Cc1ccc(F)cc1)NC(=O)/C=C/c1ccccc1)C(=O)N[C@@H](CCCNC(=N)N)C(=O)N[C@@H](CCCNC(=N)N)C(N)=O) [PAR1 antagonist peptide, reference compound]
inhibition of PI hydrolysis produced by thrombin and plasmin ([5]; pre-incubation with antagonist peptide): inhibited PI hydrolysis

SFLLRN [reference compound]
potentiation of NMDA receptor current after SFLLRN stimulation of PAR1 ([6]; NR1-1a/NR2B plus PAR1, 10-30 micromolar SFLLRN, n=9): 1.41±0.11 fold | SFLLRN potentiation of NR1-1a/NR2A receptors ([6]; oocytes with PAR1, 10-30 micromolar SFLLRN, n=6): 1.85±0.1 fold | Fluo-3 fluorescence in soma and dendrites ([4]; 3 nM thrombin or 10 micromolar SFLLRN, TTX/APV present, subset of neurons): robust increase | potentiation of the response to pressure applied NMDA plus glycine ([1]; 30 micromolar SFLLRN, n=9): 1.76±0.19 fold | stimulation of NR1 cleavage ([7]; 0.1-1 mM SFLLRN): did not stimulate cleavage

TFLLR-NH2 [specific PAR1 agonist peptide]
PI hydrolysis ([5]; wild type hippocampus / hippocampal slices): increased PI hydrolysis | free intracellular calcium [3, 9]: does not increase free intracellular calcium | free intracellular calcium [3, 10]: increases free intracellular calcium | number of BrdU-positive cells [8]: increases the number of BrdU-positive cells | number of BrdU-positive cells ([8]; listed as TFLLR): can stimulate astrocyte proliferation

bisindolylmaleimide [reference compound]
potentiation of NMDA receptor currents by thrombin in presence of BIS ([1]; BIS 10 microM in ACSF, 30 nM (3 U/ml) thrombin, n=10): 1.20±0.13 fold | NMDA responses during preapplication of BIS ([1]; BIS alone): unchanged

hirudin [reference compound]
potentiation by thrombin of NMDA responses in presence of hirudin ([1]; 3 U/ml thrombin + 100 ATU hirudin, average potentiation 12-19 min post treatment, n=5): 0.96±0.23 fold | block of NR1 cleavage by 30 nM thrombin ([7]; striatal membranes, 100 ATU hirudin): blocked cleavage

pertussis toxin
inhibition of PAR1-induced astrocyte proliferation ([8]; 24-hour pre-treatment, counting of BrdU-positive cells): could be inhibited
